Data set [1] concerns MCF-7 cells. As to the kind of experiment: Annexin-V/FITC-PI apoptosis assay (flow cytometry). It counts as cell-based, human. As to conditions: MCF-7, 48 h, at in vitro IC50. How it is done: Several studies have reported that anticancer drug molecules employ their cytotoxicity induced cell death via apoptotic pathways. […] These findings imply that the programmed cell death mechanism generated by the lead compound 2g causes considerable apoptosis in cancer cells.
In MCF-7 cells, an apoptosis assay was done using a TACs/Annexin V kit from Biolegend, USA. MCF-7 cells were seeded with a density of 5.0 × 10^4 cells per well in a flat-bottomed 12-well plate and allowed overnight for attachment. Following media aspiration, 48 hours of treatment with compound 2g and BG-45 at their in vitro IC50 values in MCF-7 cells were performed in triplicate. The cells were then trypsinized after being rinsed twice with ice-cold PBS. The trypsinized cells were then collected, centrifuged, and the obtained cell pellet was washed with ice-cold PBS before being resuspended in 100 μL of freshly prepared Annexin V reagent, which included 10 μL of 10× binding buffer, 1 μL of FITC, 10 μL of PI, and made up to 100 μL with double distilled water. Following a 30 minutes dark incubation period, these samples were diluted to 500 μL using 400 μL of 1× binding buffer. Following incubation, the samples were examined using flow cytometry (BDAria™ III, BD biosciences).
On the technique in general: Flow cytometry measures light scatter and fluorescence of single cells or particles in a stream.

In data set [2] the test system is 4T1. As to the kind of experiment: MTT anti-proliferative assay on 4T1. It counts as cell-based, mouse. As to conditions: Mus musculus, 4T1; MTT, 48 hours treatment, mean ± SD (n = 2). How it is done: (§1) All synthesized molecules were tested for their anticancer activity using the MTT assay protocol against the murine mammary carcinoma cell line (4T1), the human breast cancer (MCF-7), and the prostatic small cell carcinoma (PC-3). These compounds were then assessed for their IC50 determination at various concentrations. According to this finding, all synthesized compounds have the ability to inhibit the proliferation of a variety of cancer cell lines. […] It is more biased for MCF-7 cells over other cancer cells tested. Further, we contemplated conducting additional research to assess their anti-cancer effectiveness and mechanism (Fig. 3).
(§2) The mouse triple-negative breast cancer cell line (4T1), a human luminal A breast cancer cell line (MCF-7), a human prostate cancer cell line (PC-3), and a normal human embryonic kidney cell line (HEK-293) were procured from the National Center for Cell Science (NCCS, Pune, India). Dulbecco's Modified Eagle Medium (DMEM) (Himedia Laboratories Pvt Ltd, Mumbai, India) was used to cultivate MCF-7, 4T1, PC-3, and HEK-293 cells. All the mentioned cell lines were cultured in Dulbecco's Modified Eagle Medium (DMEM) supplemented with 10% heat-inactivated fetal bovine serum (Himedia Laboratories Pvt Ltd, Mumbai, India) and 1% antibiotic (Pen strep: A001), Himedia Laboratories Pvt Ltd, Mumbai, India. Cells were grown in a humidified environment with 5% CO2 at 37 °C. The experiment was performed using the yellow dye MTT [3-(4,5-dimethylthiazol-2-yl)-2, 5-diphenyltetrazolium bromide].
(§3) The MTT assay protocol was used to determine the IC50 values of the final compounds against different types of cancer cell lines and their selectivity over normal human cell lines. Dilutions of various concentrations were made from the compounds' DMSO stock solutions in the appropriate media. With a control solution of less than 1% DMSO in the appropriate media, dilutions from 200 μM to 0.781 μM concentrations were prepared using the serial dilution method. Cells were subcultured in their respective complete media according to the ATCC protocol before being seeded on a sterile 96-well plate with around 100 μL per well and a cell density of about 1 × 10^4 cells per well and incubated overnight. The medium was aspirated the following day, and adherent cells were treated with the respective concentrations 200 μM to 0.781 μM. The cells were then cultured for 48 hours in presence of compounds in the growth medium. The medium was aspirated post-treatment, and 100 μL of a 5 mg mL^−1 MTT solution in phenol red-free media was added. This mixture was then incubated for around 3 hours to check for the production of formazan crystals. The MTT solution was withdrawn, and 150 μL of DMSO was added to the wells to dissolve the generated crystals. The absorbance was measured at 570 nm and 650 nm. The percent cell viability was calculated for the IC50 values using GraphPad Prism™ version 8.0.1, and the results were shown as a dose–response curve.

In data set [3] the test system is MCF-7 cells. The data set can be described thus: Intracellular ROS generation (DCFH-DA). Format: cell-based, human. The settings on record: MCF-7, 48 h, IC50 dose. From the text:
This can result from the increased metabolic demands of rapidly dividing cancer cells and mitochondrial dysfunction. Elevated ROS levels can also damage DNA, contributing to genomic instability and the development of genetic mutations that drive cancer progression. Chemotherapy drugs, for example, can generate ROS as a byproduct of their mechanism of action, causing increase DNA damage and cell death in cancer cells. As a result, we investigated whether the compound 2g could cause ROS production within cancer cells.
The generation of reactive oxygen species in MCF-7 cells was investigated using the 2-7-dichlorodihydroflourescein diacetate (DCFH-DA) assay. The non-fluorescent DCFH-DA enters the cells, where cellular esterase cleaves off the acetyl groups to produce DCFH. ROS transform the molecule from DCFH to DCF, which produces green light. […] Following incubation, old medium was removed, and cells were treated with 10 μM DCFH-DA (S0033-Beyotime) in accordance with the recommended technique for 10 min at 37 °C in complete darkness. The intensity of fluorescence was then measured with a Laser Scanning Confocal Microscope (LSCM) DMI8 (Leica Microsystems, Germany) at 63× magnification at 485 nm and 535 nm for excitation and emission wavelengths. […] In the meantime, the increase in fluorescence intensity was determined in comparison to the control. Image J was used to calculate the relative fluorescence intensity (%). One-way ANOVA was used to determine significance, and the graph was created in GraphPad Prism™ version 8.0.1.

The test system of data set [4] is MCF-7 cells. As to the kind of experiment: Cell cycle analysis (PI, flow cytometry). The settings on record: MCF-7, 48 hours, at IC50 concentration. Format: cell-based, human. Here is the method: In addition to the apoptosis assay, the cell cycle progression of MCF-7 cells was also investigated using the compound 2g. The cell population at different cell cycle phases was assessed using flow cytometry. […] These findings highlight that the lead compound 2g specifically impacts cell cycle regulation in the early phase compared to control and standard compound-treated cells (Fig. 6).
Flow cytometry was used to study the cell cycle of compound 2g and BG-45 using the BDAria™ III, a BD biosciences equipment, and the data was processed using Flow Jo software. For this objective, 5.0 × 10^4 MCF-7 cells were seeded onto 12 well plates and incubated overnight. The media was aspirated the other day, and the treatment was continued for another 48 hours after adding the required concentrations of compound 2g and BG-45 to the aspirated media. Following the treatment, the sample wells were rinsed with ice-cold PBS, trypsinized, and collected as a cell pellet. After two ice-cold PBS washes, the pellet was fixed with a dropwise addition of 70% ice-cold ethanol, which was then gently vortexed to create a single-cell suspension. Overnight, the fixed cells were stored at −20 °C. The samples were then centrifuged, and the resulting cell pellet was resuspended in 500 μL of the staining solution made from 20% w/v RNase, 2% w/v PI, and roughly 0.1% v/v Triton X 100 solution in PBS. The dissolved samples were examined using flow cytometry in the BDAria™ III, BD Biosciences, after being incubated for 30 min at room temperature in the dark.

Data set [5] concerns PC-3. As to the kind of experiment: MTT anti-proliferative assay on PC-3. It counts as cell-based, human. The settings on record: Homo sapiens, PC-3; MTT, 48 hours treatment, mean ± SD (n = 2). How it is done: as §1, §2, §3
A general note: Formazan colour is commonly taken as a measure of viable cells.

Data set [6] relates to MCF-7. The data set can be described thus: MTT anti-proliferative assay on MCF-7. As to conditions: MTT, 48 hours treatment, mean ± SD (n = 2). Format: cell-based, human. How it is done: as §1, §2, §3
For data set [7], the system named is HEK-293. As to the kind of experiment: MTT cytotoxicity on normal HEK-293 cells. The settings on record: Homo sapiens, HEK293, normal cell line, 48 hours treatment, mean ± SD (n = 2). Format: cell-based.
From the text: We also investigated their in vitro cytotoxicity against a normal human embryonic kidney (HEK-293) cell line to determine their IC50.
as §2, §3

The results in this text go back to paper PMC11167338, “Exploring the impact of trifluoromethyl (–CF3) functional group on the anti-cancer activity of isoxazole-based molecules: design, synthesis, biological evaluation and molecular docking analysis” (RSC Advances, 2024).

As for `Nc1ccccc1NC(=O)c1cnccn1` [BG-45, reference compound], in data set [1], the “total apoptotic percentage (Q2 and Q4)” value amounted to 16.4 ± 1.1%. Also, the IC50 was 59.14 ± 0.17 µM in data set [2]; 28.67 ± 0.14 µM in data set [5]; 43.6 µM in data set [6] (Homo sapiens, MCF7, 48 h); 43.55 ± 0.18 µM in data set [6]; 144.56 ± 0.14 µM in data set [7]. Moreover, the “Fluorescence intensity (DCFH-DA, ImageJ)” value in data set [3] was 18.02. In data set [4], the “cell population in G0/G1 phase” value worked out at 63.6%. For the same compound, the “cell population in G2/M phase” value in data set [4] is reported as 24.4%. In addition, the “cell population in S phase” value in data set [4] amounted to 14.2%.

The compound `FC(F)(F)c1c(-c2ccccc2)noc1-c1ccccc1` [Compound 2a] came in with a melting point of 60 to 65 °C. This compound came in with an IC50 in data set [2] of 37.83 ± 0.2 µM. The same compound yielded an IC50 in data set [5] of 16.14 ± 0.15 µM. Further, the 50% inhibitory concentration (IC50) in data set [6] (Homo sapiens, MCF7, 48 h) amounted to 11.3 µM. For the same compound, the IC50 in data set [6] turned out to be 11.3 ± 0.13 µM. This compound also returned an IC50 in data set [7] of 114.9 ± 0.15 µM.

Regarding `FC(F)(F)c1c(-c2cccs2)noc1-c1ccccc1` [Compound 2b], the melting point was 65 to 69 °C. This compound also yielded an IC50 in data set [2] of 35.36 ± 0.19 µM. Besides, the IC50 in data set [5] was 13.6 ± 0.17 µM. In data set [6] (Homo sapiens, MCF7, 48 h), this compound showed an IC50 of 9.76 µM. The same compound gave a half-inhibitory concentration (IC50) in data set [6] of 9.76 ± 0.09 µM. The compound also returned an IC50 in data set [7] of 103.3 ± 0.17 µM.

`FC(F)(F)c1c(-c2ccccc2)noc1-c1cccs1` [Compound 2c]: the half-inhibitory concentration (IC50) in data set [2] worked out at 28.78 ± 0.19 µM; in data set [5] it was 11.7 ± 0.16 µM; in data set [6] (Homo sapiens, MCF7, 48 h), 8.19 ± 0.12 µM; in data set [7] it was 98.76 ± 0.24 µM.

Consider `FC(F)(F)c1c(-c2cccc3ccccc23)noc1-c1cccs1` [Compound 2d], for which the IC50 was 37.18 ± 0.22 µM in data set [2]; 15.59 ± 0.14 µM in data set [5]; 10.6 ± 0.19 µM in data set [6] (Homo sapiens, MCF7, 48 h); 111.8 ± 0.17 µM in data set [7].

In turn, `FC(F)(F)c1c(-c2cccs2)noc1-c1ccco1` [Compound 2e] showed a melting point of 66 to 70 °C. The same compound returned an IC50 in data set [2] of 23.5 ± 0.21 µM. Besides, the IC50 in data set [5] was 11.6 ± 0.14 µM. The compound also gave an IC50 in data set [6] (Homo sapiens, MCF7, 48 h) of 5.48 µM. In addition, 5.48 ± 0.14 µM corresponded to half-maximal inhibition in data set [6] (IC50). This compound also gave an IC50 in data set [7] of 94.55 ± 0.2 µM.

On to `FC(F)(F)c1c(-c2ccco2)noc1-c1cccs1` [Compound 2f], for which the 50% inhibitory concentration (IC50) in data set [2] amounted to 18.12 ± 0.15 µM; in data set [5], 10.3 ± 0.15 µM; in data set [6] (Homo sapiens, MCF7, 48 h), 5.32 µM; in data set [6] it was 5.32 ± 0.19 µM; in data set [7] it was 86.98 ± 0.23 µM.

Consider `FC(F)(F)c1c(-c2cccs2)noc1/C=C/c1cccs1` [Compound 4, (E)-3-(thiophen-2-yl)-5-(2-(thiophen-2-yl)vinyl)-4-(trifluoromethyl)isoxazole], for which the IC50 in data set [2] was 44.36 ± 0.2 µM; in data set [5] it was 17.99 ± 0.13 µM; in data set [6] (Homo sapiens, MCF7, 48 h), 13.7 µM; in data set [6] it was 13.71 ± 0.13 µM; in data set [7], 122 ± 0.16 µM.

Regarding `FC(F)(F)c1c(-c2cccs2)noc1-c1c[nH]cc1-c1cccs1` [Compound 5, 3-(thiophen-2-yl)-5-(4-(thiophen-2-yl)-1H-pyrrol-3-yl)-4-(trifluoromethyl)isoxazole], the IC50 in data set [2] amounted to 14.96 ± 0.13 µM; in data set [5], 9.56 ± 0.18 µM; in data set [6] (Homo sapiens, MCF7, 48 h) it was 3.09 µM; in data set [6] it was 3.09 ± 0.11 µM; in data set [7], 84.86 ± 0.19 µM.

`c1ccc(-c2cc(-c3ccccc3)on2)cc1` [Compound 7, 3,5-diphenylisoxazole]: the half-inhibitory concentration (IC50) in data set [2] amounted to 41.58 ± 0.21 µM; in data set [5], 17.42 ± 0.17 µM; in data set [6] (Homo sapiens, MCF7, 48 h), 13 µM; in data set [6] it was 13.03 ± 0.13 µM; in data set [7], 118.7 ± 0.21 µM.

Turning to `c1ccc(-c2cc(-c3cccs3)on2)cc1` [Compound 9, 3-phenyl-5-(thiophen-2-yl)isoxazole], the 50% inhibitory concentration (IC50) in data set [2] is 36.24 ± 0.2 µM; in data set [5] it was 14.5 ± 0.17 µM; in data set [6] (Homo sapiens, MCF7, 48 h), 10 µM; in data set [6], 9.99 ± 0.1 µM; in data set [7] it was 109.3 ± 0.19 µM.

Regarding `COc1ccc(-c2cc(-c3cccs3)on2)cc1OC` [Compound 14, 3-(3,4-dimethoxyphenyl)-5-(thiophen-2-yl)isoxazole, reference compound], the IC50 in data set [2] came out at 48.39 ± 0.19 µM; in data set [5], 30.21 ± 0.22 µM; in data set [6] (Homo sapiens, MCF7, 48 h), 19.72 ± 0.16 µM; in data set [7], 131.5 ± 0.13 µM.

As usually defined, the IC50 is the concentration needed to halve the response being measured. A higher IC50 goes with weaker potency in that assay. Usually melting point stands for the temperature of the solid-liquid transition.
